The record followed here is ChEMBL document CHEMBL1201862, “PubChem BioAssay data set” (2004).

Structures are written as SMILES.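 Protocol summary: plate cells (96-well), add compound at 5 concentrations, incubate 48 h, interpolate endpoints linearly. GI50 = concentration required for 50% inhibition of growth.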 Activity calls are given as the source filed them. No stated cut-off is given here; in the data, active = GI50 up to about 1.1 µM and inactive = higher. Bounds are passed on as bounds.

Some test systems named below: 786-0; A549; ACHN; CCRF-CEM; COLO 205; DU-145; HCC 2998; HCT-116; HT-29; MDA-MB-231; MOLT-4; NCI-H522; OVCAR-4; OVCAR-5; OVCAR-8; SF-295; SNB-75; TK-10; UACC-257; UO-31.
Experiment in all cases: NCI anticancer screen, dose series, 48 h

For the compound `O=C1SC(c2ccc(Cl)cc2)(c2ccc(Cl)cc2)c2ccccc21`, the GI50 with 786-0 is > 100 µM (inactive); in the test with A549, > 100 µM (inactive); in the test with ACHN, 91 µM (inactive); in the test with CCRF-CEM, 36.2 µM (inactive); in the test on COLO 205, 83 µM (inactive); in the test with DU-145 it was 89.1 µM (inactive). For the same compound, the GI50 in the test with HCC 2998 is 38.3 µM (inactive); in the test with HCT-116, 13.3 µM (inactive); in the test with HT-29, 38.5 µM (inactive); in the test with MDA-MB-231 it was > 100 µM (inactive); in the test on MOLT-4 it was 32.7 µM (inactive); with NCI-H522 it was 70 µM (inactive). For the same compound, the GI50 in the test on OVCAR-4 was 33.5 µM (inactive); in the test with OVCAR-5 it was > 100 µM (inactive); in the test with OVCAR-8, > 100 µM (inactive); in the test on SF-295, 97.5 µM (inactive); in the test on SNB-75 it was > 100 µM (inactive); in the test with TK-10 it was > 100 µM (inactive). Also, the GI50 with UACC-257 was 34.3 µM (inactive); with UO-31 it was 76.6 µM (inactive).

For `CC(=O)OCCOCn1c2c(c(=O)[nH]c1=O)CCC2`, the GI50 in the test on 786-0, in the test with A549, with ACHN, in the test on CCRF-CEM, in the test with COLO 205 and with DU-145 was > 100 µM (inactive) throughout. Besides, the GI50 with HCC 2998, in the test with HCT-116, with HT-29, in the test with MDA-MB-231, with MOLT-4 and in the test with NCI-H522 was > 100 µM (inactive) throughout. Moreover, the GI50 in the test on OVCAR-4, with OVCAR-5, in the test on OVCAR-8, in the test on SF-295, with SNB-75 and with TK-10 was > 100 µM (inactive) in each case. Also, the GI50 with UACC-257 and in the test with UO-31 was > 100 µM (inactive) each time.

With `Cc1ccc2c(c1)C(=O)c1nc(C)ccc1C2=O`, the GI50 was 43.8 µM (inactive) in the test on 786-0; 31 µM (inactive) in the test on A549; 33.3 µM (inactive) in the test on ACHN; 27.9 µM (inactive) with CCRF-CEM; 17.3 µM (inactive) with COLO 205; 32.3 µM (inactive) in the test with DU-145. Further, the GI50 was 34.9 µM (inactive) in the test on HCC 2998; 23.9 µM (inactive) in the test on HCT-116; 17 µM (inactive) in the test on HT-29; 13.9 µM (inactive) with MDA-MB-231; 69.3 µM (inactive) in the test on MOLT-4; 28.7 µM (inactive) with NCI-H522. In addition, the GI50 in the test on OVCAR-4 was 28.2 µM (inactive); in the test on OVCAR-5 it was 86.1 µM (inactive); in the test on OVCAR-8 it was 27 µM (inactive); with SF-295, 38.1 µM (inactive); in the test with SNB-75, 29.8 µM (inactive); with TK-10, 38.3 µM (inactive). The GI50 in the test on UACC-257 is 23.6 µM (inactive); in the test with UO-31, 26.4 µM (inactive).

Take `C=CC1(O)CCCC=C1COCc1ccccc1` (stereo not given): the GI50 was > 100 µM (inactive) in the test on 786-0; > 100 µM (inactive) with A549; 56 µM (inactive) in the test with ACHN; 43.6 µM (inactive) with CCRF-CEM; > 100 µM (inactive) in the test on COLO 205; > 100 µM (inactive) in the test on DU-145. Further, the GI50 is > 100 µM (inactive) with HCC 2998; 51.3 µM (inactive) in the test on HCT-116; 93.5 µM (inactive) in the test on HT-29; > 100 µM (inactive) in the test with MDA-MB-231; 23.4 µM (inactive) in the test with MOLT-4; 16 µM (inactive) in the test with NCI-H522. Further, the GI50 with OVCAR-4 was 38.4 µM (inactive); in the test with OVCAR-5, > 100 µM (inactive); with OVCAR-8, 53 µM (inactive); in the test with SF-295 it was > 100 µM (inactive); in the test with SNB-75, 61.4 µM (inactive); in the test with TK-10, > 100 µM (inactive). Moreover, the GI50 in the test with UACC-257 is > 100 µM (inactive); in the test on UO-31, 45.1 µM (inactive).

As for `CCCCc1ccc(Nc2nc(Cl)c3ccn(C4CC(Oc5ccc(C)cc5)C(COc5ccc(C)cc5)O4)c3n2)cc1` (stereo not given), the GI50 with 786-0 is > 46.5 µM (inactive); in the test with A549, > 46.5 µM (inactive); in the test on ACHN, 25.2 µM (inactive); with CCRF-CEM it was > 46.5 µM (inactive); in the test on COLO 205, > 46.5 µM (inactive); with DU-145, > 46.5 µM (inactive). The GI50 in the test on HCC 2998 was > 46.5 µM (inactive); with HCT-116, > 46.5 µM (inactive); with HT-29, > 46.5 µM (inactive); in the test with MDA-MB-231, > 46.5 µM (inactive); in the test on MOLT-4, > 46.5 µM (inactive); with NCI-H522 it was 22.4 µM (inactive). Further, the GI50 with OVCAR-4 was > 31.6 µM (inactive); with OVCAR-5, > 31.6 µM (inactive); with OVCAR-8, > 46.5 µM (inactive); with SF-295, > 46.5 µM (inactive); in the test with SNB-75, > 83.2 µM (inactive); in the test with TK-10, 30.3 µM (inactive). Also, the GI50 was 25.9 µM (inactive) in the test on UACC-257 and 25.6 µM (inactive) in the test with UO-31.

Consider `N=C(N)N/N=C\c1ccc(C2CCNCC2)cc1`, for which the GI50 in the test with 786-0, in the test on A549, in the test with ACHN, in the test with CCRF-CEM, in the test with COLO 205 and with DU-145 was > 100 µM (inactive) in each case. Moreover, the GI50 with HCC 2998, in the test on HCT-116, with HT-29, in the test with MDA-MB-231, in the test with MOLT-4 and in the test with NCI-H522 was > 100 µM (inactive) in each case. In addition, the GI50 in the test on OVCAR-4, in the test on OVCAR-5, with OVCAR-8, with SF-295, with SNB-75 and in the test on TK-10 was > 100 µM (inactive) in each case. Moreover, the GI50 with UACC-257 and with UO-31 was > 100 µM (inactive) each time.

As for `Cc1cc(NCc2ccccc2)c2ccccc2[n+]1CCCCCCCCCC[n+]1c(C)cc(NCc2ccccc2)c2ccccc21.[O-][Cl+3]([O-])([O-])[O-].[O-][Cl+3]([O-])([O-])[O-]`, the GI50 in the test with 786-0 is 0.653 µM (active); with A549 it was 0.394 µM (active); in the test on ACHN it was 0.565 µM (active); in the test on CCRF-CEM, 0.377 µM (active); in the test with COLO 205, 0.236 µM (active); with DU-145 it was 0.692 µM (active). Further, the GI50 is 0.562 µM (active) in the test with HCC 2998; 0.324 µM (active) with HCT-116; 0.345 µM (active) with HT-29; 0.472 µM (active) with MDA-MB-231; 0.423 µM (active) in the test with MOLT-4; 19.5 µM (inactive) with NCI-H522. Also, the GI50 was 1.3 µM (inactive) in the test on OVCAR-4; 2.19 µM (inactive) in the test on OVCAR-5; 0.431 µM (active) in the test on OVCAR-8; 0.391 µM (active) with SF-295; 0.205 µM (active) with SNB-75; 1.21 µM (inactive) with TK-10. The GI50 in the test with UACC-257 is 0.274 µM (active); in the test on UO-31 it was 1.86 µM (inactive).

In the case of `CO[C@@]12[C@H](COC(N)=O)C3=C(C(=O)C(C)=C(N)C3=O)N1C[C@H]1[C@@H]2N1C` (stereo not given in full) [PORFIROMYCIN], the GI50 was 8.57 µM (inactive) with 786-0; 0.489 µM (active) in the test with A549; 0.38 µM (active) in the test on ACHN; 0.993 µM (active) with CCRF-CEM; 2.22 µM (inactive) with COLO 205; 0.282 µM (active) in the test with DU-145. Further, the GI50 in the test on HCC 2998 was 1.95 µM (inactive); in the test on HCT-116, 2.22 µM (inactive); in the test with HT-29, 1.42 µM (inactive); in the test on MDA-MB-231, 9.73 µM (inactive); in the test with MOLT-4, 0.543 µM (active); with NCI-H522, 4.59 µM (inactive). The GI50 with OVCAR-4 is 9.68 µM (inactive); in the test on OVCAR-5 it was 10.2 µM (inactive); in the test with OVCAR-8, 3.95 µM (inactive); in the test on SF-295 it was 0.398 µM (active); in the test on SNB-75, 1.1 µM (active); in the test with TK-10 it was 16.3 µM (inactive). Also, the GI50 in the test with UACC-257 was 8.28 µM (inactive); with UO-31, 13.9 µM (inactive).

Regarding `COc1cc(C[C@H]2c3cc(OC)c(OC)cc3CCN2C)c(Oc2cc3c(cc2OC)-c2c(OC)c(OC)cc4c2[C@H](C3)N(C)CC4)cc1OC` [THALICARPINE], the GI50 in the test on 786-0 was 3.52 µM (inactive); in the test with A549, 11.9 µM (inactive); in the test with ACHN, 12.9 µM (inactive); with CCRF-CEM, 8.99 µM (inactive); in the test with COLO 205, 5.75 µM (inactive); in the test with DU-145 it was 14 µM (inactive). The GI50 with HCC 2998 is 7.6 µM (inactive); with HCT-116, 4.83 µM (inactive); in the test on HT-29, 5.66 µM (inactive); with MDA-MB-231 it was 4.13 µM (inactive); in the test on MOLT-4 it was 6.25 µM (inactive); in the test with NCI-H522 it was 6.89 µM (inactive). In addition, the GI50 in the test with OVCAR-4 is 8.3 µM (inactive); in the test on OVCAR-5, 10.5 µM (inactive); with OVCAR-8 it was 7.43 µM (inactive); in the test on SF-295, 10.1 µM (inactive); in the test with SNB-75, 7.03 µM (inactive); in the test with TK-10 it was 3.61 µM (inactive). Moreover, the values for the GI50 in the test with UACC-257 and in the test with UO-31 were 5.13 µM (inactive) and 4.66 µM (inactive), respectively.
